The target of assay [1] is T1, glutathione S-transferase (GST)-fused full-length human Syk protein (Homo sapiens, UniProt P43405).
T1 construct: (GST)-fused full-length human Syk protein; GST (glutathione S-transferase); purchased Carna Biosciences
The assay is described as follows: Syk enzyme assay. The note with it: read-out: Syk-inhibitory activity (IC50). Format: biochemical. An outline of the steps: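 GST-tagged full-length human Syk (baculovirus) preincubated with compound 15 min at room temperature (pH 7.0, 10 mM MgCl2), then reacted 40 min with 0.4 μM biotinylated peptide substrate and 27 μM ATP (final). Phosphorylation read by HTRF (615/665 nm) after EDTA stop; IC50 reported.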

For assay [2], the system named is male DBA/1J mice. Put plainly: Mouse type-II collagen-induced arthritis (prophylactic and therapeutic administration test). Particulars: for advancement of arthritis after the onset (arthritis score): prophylactic administration test, once daily Day 21 to Day 34, 1 to 30 mg/kg/day. Format: in vivo. As to the method:
The compounds synthesized in Example 8-1, Example 4-17, and Example 6-49 were tested to examine effects upon mouse type II collagen arthritis. To 2 mg/mL bovine type II collagen solution (Koken Co., Ltd.) dissolved in 0.1 mol/L acetic acid, an equal amount of Freund's complete adjuvant (Wako Pure Chemical Industries, Ltd.) was added to prepare an emulsion. A portion of the emulsion was intradermally injected into the tail bases of 7- or 8-week-old male DBA/1J mice (Charles River Laboratories Japan, Inc.) at a dose of 0.2 mL per mouse (antigen amount: 0.2 mg/mouse) on Day 0 and Day 21 twice, so as to induce arthritis. Each compound was administered once daily from Day 21 to Day 34 in the prophylactic administration test (1 to 30 mg/kg/day), and administered once daily from Day 27 to Day 35 in the therapeutic administration test (25 mg/kg/day). Arthritis scores for four limbs for each mouse were determined starting from Day 21. Specifically, the total score of four limbs of a mouse was designated as the individual arthritis score (12 points at a maximum per mouse) based on the following: score 0: no change; score 1: swelling of 1 or 2 digit joints or mild swelling of the carpal region/the ankle region alone; score 2: swelling of joints of at least 3 digits or obvious swelling of the carpal region/the ankle region; and score 3: obvious swelling over forelimbs or hindlimbs.

Assay [3] has as its system female BALB/c mice. Put plainly: Mouse type-II-collagen-antibody-induced arthritis. Particulars: intraperitoneal 30 mg/kg/day, twice daily, Day 0 to Day 13. Format: in vivo. How it is done: The compound synthesized in Example 8-1 was tested to examine effects upon mouse-type-II-collagen-antibody-induced arthritis. An anti-type II collagen antibody mixture (Chondrex) was intraperitoneally injected into 7-week-old female BALB/c mice (Charles River Laboratories Japan, Inc.) (1.5 mg per mouse) (Day 0). An LPS solution 0111:B4 (Chondrex) (50 μg) was intraperitoneally injected thereinto three days later (Day 3), thereby inducing arthritis. Swelling scores were determined for four limbs of each mouse once daily from Day 3 to Day 14. Specifically, evaluation was carried out using a twelve-point scale for the sum of the scores for the four limbs for each mouse: 0 point: no change; 1 point: mild erythema/swelling on the carpal region or the ankle/calcaneal region; 2 points: obvious swelling on the carpal region or the ankle/calcaneal region; 3 points: severe swelling over forelimbs or hindlimbs. The compound synthesized in Example 8-1 was intraperitoneally administered at 30 mg/kg/day twice daily on consecutive days (from Day 0 to Day 13). The bone destruction score was determined based on soft X-ray images of four limbs taken on Day 14. […]

The test system of assay [4] is 170 types of kinases excluding Syk. The assay is described as follows: Kinase selectivity, Profiler Pro kits (Caliper). Particulars: test compound 100 nM. Format: biochemical. How it is done:
The concentrations of test compounds were adjusted to 100 nM. The test compounds were examined using Profiler Pro kits (Caliper) in terms of activity against each of 170 types of kinases excluding Syk. […] A compound (Example 6-157) having a kinase inhibitory rate of 75% or more with respect to 12 types of kinases was also obtained. Further, an inhibitor (Example 6-373) having a kinase inhibitory rate of 75% or more with respect to 24 types of kinases was obtained.

For assay [5], the system named is female Lewis rats. The assay is described as follows: Rat type-II-collagen-induced arthritis. Format: in vivo. The note with it: oral administration at 10 mg/kg/day, once daily Day 7 to Day 20, hindlimb volume by plethysmometer, read-out: inhibition of hindlimb swelling compared with the control group. As to the method: The compounds were tested to examine effects upon rat type II collagen arthritis. To 3 mg/mL bovine type II collagen solution (Collagen Gijutsu Kenshu-Kai) dissolved in 0.05 mol/L acetic acid, an equal amount of Freund's incomplete adjuvant (Wako Pure Chemical Industries, Ltd.) was added to prepare an emulsion. A portion of the emulsion (0.5 ml) was intradermally injected into the tail bases of 7- or 8-week-old female Lewis rats (Charles River Laboratories Japan, Inc.) (Day 0). Each rat was subjected to the same treatment on Day 7 after the initial inoculation so as to induce arthritis. Each test compound was orally administered from Day 7 to Day 20 once daily. At a given time during the period from Day 7 to Day 21, the rat hindlimb volume was determined using a plethysmometer (UGO BASILE), and the result was designated as an arthritis index. The following compound group inhibited hindlimb swelling by 85% or greater compared with the control group in the case of oral administration at 10 mg/kg/day: the compounds of Example 4-17, Example 6-49, Example 6-117, Example 6-157, Example 6-249, Example 6-322, Example 6-375, and Example 6-395.

pIC50: −log10 of the molar value.

As to `COc1cc(Nc2nc(NCCN)c(F)cc2C(N)=O)cc(OC)c1` [Example 8-1, 6-(2-aminoethylamino)-2-(3,5-dimethoxyphenylamino)-5-fluoronicotinamide], the pIC50 (commonly the negative decadic logarithm of the IC50, by convention in mol/L) in assay [1] is ≥ 6.00. The “advancement of arthritis after the onset (arthritis score)” value in assay [2] is on record as “strongly inhibited”. For the same compound, the “increase in the swelling score” value in assay [3] (scored Day 3 to Day 14) is reported as “almost completely inhibited”. Also, the “increase in the bone destruction score” value in assay [3] (soft X-ray images on Day 14) is “almost completely inhibited”.

Consider `COCCOc1cc(Nc2nc(N[C@@H](CN)CC(C)C)c(F)cc2C(N)=O)ccn1` [Example 6-157], for which the “number of kinases with kinase inhibitory rate of 75% or more” value in assay [4] was 12 types of kinases. Further, the inhibition in vivo at 10 mg/kg/day in assay [5] is ≥ 85%.

With `C[C@H](N)[C@H](Nc1nc(Nc2cncc(-n3cccn3)c2)c(C(N)=O)cc1F)C1CC1` [Example 6-373, 2-((5-(1H-pyrazol-1-yl)pyridin-3-yl)amino)-6-(((1R,2S)-2-amino-1-cyclopropylpropyl)amino)-5-fluoronicotinamide], the “number of kinases with kinase inhibitory rate of 75% or more” value in assay [4] is reported as 24 types of kinases.

Turning to `Cc1cncc(Nc2nc(N[C@@H]3CCCC[C@@H]3N)c(F)cc2C(N)=O)c1` (relative stereo) [Example 6-49, 6-(cis-2-aminocyclohexylamino)-5-fluoro-2-(5-methylpyridin-3-ylamino)nicotinamide], the “advancement of arthritis after the onset (arthritis score)” value in assay [2] is given as “strongly inhibited”. For the same compound, the “advancement of arthritis (arthritis score)” value in assay [2] (therapeutic administration test, once daily Day 27 to Day 35, 25 mg/kg/day) is reported as “strongly inhibited”. In assay [5], the inhibition in vivo at 10 mg/kg/day was ≥ 85%.

The record behind these values is US8895585B2, “Nicotinamide derivative or salt thereof” (FUJIFILM Corporation, priority 2010, dated 2014).
